Literature values as cited in Sander's compilation of Henry's law constants (doi:10.1021/cr60306a003).

Experiment: Henry solubility constant Hcp at 298.15 K (mol/(m3 Pa))
Conditions: reference: Wilhelm et al. (1977); cited value

Row | SMILES | Henry solubility constant Hcp
1 | C=CC=C [1,3-butadiene] | 0.00014
2 | C#CC=C [3-buten-1-yne] | 0.00037
3 | CBr [bromomethane] | 0.0016
4 | [C-]#[O+] [carbon monoxide] | 9.4e-06
5 | O=C=S [carbon oxide sulfide] | 0.00021
6 | [O][Cl+][O-] [chlorine dioxide] | 0.01
7 | FC(F)Cl [chlorodifluoromethane] | 0.00034
8 | C=CCl [chloroethene] | 0.00045
9 | FCCl [chlorofluoromethane] | 0.0015
10 | FC(F)(Cl)Cl [dichlorodifluoromethane] | 2.1e-05
11 | CNC [dimethylamine] | 0.3
12 | FN(F)N(F)F [dinitrogen tetrafluoride] | 8.4e-06
13 | CCN [ethanamine] | 0.35
14 | FC(F)=C(F)C(F)(F)F [hexafluoropropene] | 2.9e-06
15 | CN [methanamine] | 0.35
16 | FN(F)F [nitrogen trifluoride] | 7.9e-06
17 | O=[O+][O-] [ozone] | 0.00013
18 | P [phosphorus trihydride] | 8.1e-05
19 | O=S=O [sulfur dioxide] | 0.014
20 | FC(F)=C(F)F [tetrafluoroethene] | 1.6e-05
21 | FC(F)(F)F [tetrafluoromethane] | 2.1e-06

Results, then the compound that gave them:

Row | Henry solubility constant Hcp | SMILES
22 | 0.00013 | C=CCC [1-butene]
23 | 0.00075 | C#CCC [1-butyne]
24 | 8e-06 | CC(C)C [2-methylpropane]
25 | 5.6e-05 | C=C(C)C [2-methylpropene]
26 | 1.4e-05 | [Ar] [argon]
27 | 1.2e-05 | CCCC [butane]
28 | 0.00033 | O=C=O [carbon dioxide]
29 | 3.4e-06 | FC(F)(F)C(F)(F)Cl [chloropentafluoroethane]
30 | 9.3e-06 | FC(F)(F)Cl [chlorotrifluoromethane]
31 | 0.00011 | C1CC1 [cyclopropane]
32 | 5.9e-06 | CC(C)(C)C [dimethylpropane]
33 | 0.00024 | [N-]=[N+]=O [dinitrogen monoxide]
34 | 4.7e-05 | C=C [ethene]
35 | 0.00041 | C#C [ethyne]
36 | 0.00058 | CF [fluoromethane]
37 | 3.8e-06 | [He] [helium]
38 | 7.7e-06 | [HH] [hydrogen]
39 | 2.5e-05 | [Kr] [krypton]
40 | 4.4e-06 | [Ne] [neon]
41 | 1.3e-05 | O=O [oxygen]
42 | 7.3e-05 | C=CC [propene]
43 | 9.2e-05 | [Rn] [radon]
44 | 2.4e-06 | FS(F)(F)(F)(F)F [sulfur hexafluoride]
45 | 0.00013 | FC(F)F [trifluoromethane]
46 | 4.2e-05 | [Xe] [xenon]
